# Reference: patent EP2241312A1, “Use of compositions comprising urea for treating microbial infections” (ISDIN S.A., priority 2009, dated 2010)
# Read-outs that look alike come from different tables or passages of the source.
# Tests used:
# Assay in all cases: cells
# Assay type in all cases: cell-based, human
# HBD1 = details: for fold induction at 10000 µM: Homo sapiens, Keratinocyte; for relative gene expression level HBD1: primary keratinocytes, 10000 µM
# Experimental: (§1) Primary human epidermal keratinocytes were prepared from neonatal foreskin as described previously (Grether-Beck et al, 1996, 2000, 2003, 2005, 2008) and maintained in culture under serum free conditions using a defined keratinocyte growth medium Keratinocyte SFM (Invitrogen, Heidelberg, Germany) supplemented with bovine pituitary extract (Invitrogen, Heidelberg, Germany) and recombinant epidermal growth factor (Invitrogen, Heidelberg, Germany). Cells were propagated up to passage 2 or 3 at 37°C and 5 % CO2 (Grether-Beck et al, 1996, 2000, 2003, 2005, 2008). For induction of differentiation NHEKs were seeded in 6well plates and grown up to confluence.
# (§2) For assessment of gene expression total RNA was extracted from frozen biopsies (Ø 4 mm) and gene expression measured by semiquantitative RT-PCR. For isolation of RNA from frozen skin biopsies, 600 µl lysis buffer from PeqGold Total RNA Kit (PeqLab, Erlangen, Germany) were added and the samples were disrupted in a MixerMill MM300 (Retsch, Haan, Germany) three times for 3 min with 30 Hz. 50 ng total RNA were used for cDNA synthesis. PCR reactions were performed in an Opticon 1 (MJ Research, Waltham, MA, USA) using Sybr QPCR Supermix w. Rox (Invitrogen, Karlsruhe, Germany). PCR conditions were as follows: activation of hot start taq polymerase 94° C 15 minutes; denaturation 95° C, 20 seconds; annealing, 55° C, 20 seconds; extension, 72° C 30 seconds. Each sample was subjected to PCR in double using the appropriate primer pairs for 45-50 cycles. For comparison of relative expression in real time PCR control cells and treated cells the 2 (-della delta C(T)) method was used (Livak KJ, and Schmittgen TD. Analysis of relative gene expression data using real time quantitative PCR and the 2 (-delta delta C(T)) method. Methods 2001: 25: 402 - 408). mRNA expression of the genes of interest was shown as fold induction as compared to untreated skin samples of the same volunteer. Table 1: Primer pairs for real time PCR
# (§3) For determination of relative gene expression in real time PCT the 2(-delta delta C(T))-method was used as described in Livak and Schmittgen (2001) "Analysis of relative gene expression data using real time quantitative PCR and the 2 (-delta delta C(T))-method" Methods 25: 401-408. For statistical analysis, the experimental data were analyzed using the Wilcoxon signed-rank test.
# (§4) HNKs were stimulated with 10mM urea for the indicated time points (3h, 6h, 12h, 24h) and processed for RNA analysis (1). Data are the result of a set of three samples for the control and two samples in parallel for the urea stimulated ones. Table 2 indicates the relative gene expression levels after stimulation with urea as compared to untreated contol cells. […] Table 3 indicates the data depicted in Figure 2. [formula] Table 2: Expression of antimicrobial peptides in human keratinocytes after stimulation with urea at different time points after induction.
# Humpsor = details: for fold induction at 10000 µM: Homo sapiens, Keratinocyte
# Experimental: as §1, §2, §3, §4
# HBD3 = details: for fold induction at 10000 µM: Homo sapiens, Keratinocyte; for relative gene expression level HBD3: primary keratinocytes, 10000 µM
# Experimental: as §1, §2, §3, §4
structure (smiles),measurement,setting,value
NC(N)=O [urea],fold induction at 10000 µM,"HBD1; 3 h, read-out: relative gene expression level HBD1, 10mM urea, 3h, compared to untreated control cells",3.1
same,fold induction at 10000 µM,"HBD1; 6 h, read-out: relative gene expression level HBD1, 10mM urea, 6h, compared to untreated control cells",1.3
same,fold induction at 10000 µM,"HBD1; 12 h, read-out: relative gene expression level HBD1, 10mM urea, 12h, compared to untreated control cells",1.6
same,fold induction at 10000 µM,"HBD1; 24 h, read-out: relative gene expression level HBD1, 10mM urea, 24h, compared to untreated control cells",1.6
same,relative gene expression level HBD1,HBD1; 3 h,3.000
same,relative gene expression level HBD1,HBD1; 6 h,1.5000
same,fold induction at 10000 µM,"Humpsor; 3 h, read-out: relative gene expression level Humpsor, 10mM urea, 3h, compared to untreated control cells",1.9
same,fold induction at 10000 µM,"Humpsor; 6 h, read-out: relative gene expression level Humpsor, 10mM urea, 6h, compared to untreated control cells",2.6
same,fold induction at 10000 µM,"Humpsor; 24 h, read-out: relative gene expression level Humpsor, 10mM urea, 24h, compared to untreated control cells",1.5
same,relative gene expression level Humpsor,"Humpsor; primary keratinocytes, 6 h, 10000 µM",3.1000
same,fold induction at 10000 µM,"HBD3; 3 h, read-out: relative gene expression level HBD3, 10mM urea, 3h, compared to untreated control cells",4
same,fold induction at 10000 µM,"HBD3; 6 h, read-out: relative gene expression level HBD3, 10mM urea, 6h, compared to untreated control cells",2
same,fold induction at 10000 µM,"HBD3; 12 h, read-out: relative gene expression level HBD3, 10mM urea, 12h, compared to untreated control cells",1.6
same,fold induction at 10000 µM,"HBD3; 24 h, read-out: relative gene expression level HBD3, 10mM urea, 24h, compared to untreated control cells",3.2
same,relative gene expression level HBD3,HBD3; 3 h,3.7000
same,relative gene expression level HBD3,HBD3; 6 h,1.8000
same,relative gene expression level HBD3,HBD3; 12 h,1.7000
same,relative gene expression level HBD3,HBD3; 24 h,3.3000
